Target: T1, ΔF508-CFTR (Homo sapiens, UniProt P13569, DEL508-508)
T1 construct: Primary lung epithelial cells homozygous for the Cystic Fibrosis-causing ΔF508 mutation were differentiated for a minimum of 4 weeks; endogenous in cells; host or cells: primary lung epithelial cells (hBE) homozygous for ΔF508, differentiated at an air-liquid interface
Assay: hBE equivalent current (Ieq) assay: AUC of equivalent chloride current after forskolin/VX-770 in primary lung epithelial cells homozygous for ΔF508
Type: cell-based
Details: relative to CFTR amplifier (Compound A)+VX-809 (3 uM), compound at 10 uM and Compound A at 3 uM, 24 h treatment
Protocol: ii. hBE Equivalent Current (Ieq) Assay
Primary lung epithelial cells homozygous for the Cystic Fibrosis-causing ΔF508 mutation were differentiated for a minimum of 4 weeks in an air-liquid interface on Costar 24 well HTS filter plates prior to the equivalent current (Ieq) measurements. Cells were apically mucus-washed for 30 minutes 24 h prior to treatment with compounds. The basolateral media was removed and replaced with media containing the compound of interest diluted to its final concentration from DMSO stocks. Treated cells were incubated at 37° C. and 5% CO2 for 24 hours. At the end of the treatment period, the media was changed to the Ieq experimental solution for 2 hours before the experiment and plates are maintained in a CO2-free incubator during this period. The plates containing the cells were then placed in pre-warmed heating blocks at 36° C.±0.5 for 15 minutes before measurements are taken. The transepithelial voltage (VT) and conductance (GT) were measured using a custom 24 channel current clamp (TECC-24) with 24 well electrode manifold. The Ieq assay measurements were made following additions with standardized time periods: • 1. The baseline VT and GT values were measured for approximately 20 minutes. • 2. Benzamil was added to block ENaC for 15 minutes. • 3. Forskolin plus VX-770 were added to maximally activate ΔF508-CFTR for 27 minutes. • 4. Bumetanide was added to inhibit the NaK2Cl cotransporter and shut-off secretion of chloride.
The activity data captured was the area under the curve (AUC) for the traces of the equivalent chloride current. The AUC was collected from the time of the forskolin/VX-770 addition until the inhibition by bumetanide addition. Correction in response to compound treatment was scored as the increase in the AUC for compound-treated samples over that of vehicle-treated samples.
(+ indicates activity<50% of an CFTR amplifier (Compound A)+VX-809 (3 uM) with compound at 10 uM and Compound A at 3 uM; ++ indicates activity>50% of CFTR amplifier+VX-809 (3 uM) with compound at 10 uM and Compound A at 3 uM.

T1 sequence (P13569 with tags, fused parts or gaps DEL508-508): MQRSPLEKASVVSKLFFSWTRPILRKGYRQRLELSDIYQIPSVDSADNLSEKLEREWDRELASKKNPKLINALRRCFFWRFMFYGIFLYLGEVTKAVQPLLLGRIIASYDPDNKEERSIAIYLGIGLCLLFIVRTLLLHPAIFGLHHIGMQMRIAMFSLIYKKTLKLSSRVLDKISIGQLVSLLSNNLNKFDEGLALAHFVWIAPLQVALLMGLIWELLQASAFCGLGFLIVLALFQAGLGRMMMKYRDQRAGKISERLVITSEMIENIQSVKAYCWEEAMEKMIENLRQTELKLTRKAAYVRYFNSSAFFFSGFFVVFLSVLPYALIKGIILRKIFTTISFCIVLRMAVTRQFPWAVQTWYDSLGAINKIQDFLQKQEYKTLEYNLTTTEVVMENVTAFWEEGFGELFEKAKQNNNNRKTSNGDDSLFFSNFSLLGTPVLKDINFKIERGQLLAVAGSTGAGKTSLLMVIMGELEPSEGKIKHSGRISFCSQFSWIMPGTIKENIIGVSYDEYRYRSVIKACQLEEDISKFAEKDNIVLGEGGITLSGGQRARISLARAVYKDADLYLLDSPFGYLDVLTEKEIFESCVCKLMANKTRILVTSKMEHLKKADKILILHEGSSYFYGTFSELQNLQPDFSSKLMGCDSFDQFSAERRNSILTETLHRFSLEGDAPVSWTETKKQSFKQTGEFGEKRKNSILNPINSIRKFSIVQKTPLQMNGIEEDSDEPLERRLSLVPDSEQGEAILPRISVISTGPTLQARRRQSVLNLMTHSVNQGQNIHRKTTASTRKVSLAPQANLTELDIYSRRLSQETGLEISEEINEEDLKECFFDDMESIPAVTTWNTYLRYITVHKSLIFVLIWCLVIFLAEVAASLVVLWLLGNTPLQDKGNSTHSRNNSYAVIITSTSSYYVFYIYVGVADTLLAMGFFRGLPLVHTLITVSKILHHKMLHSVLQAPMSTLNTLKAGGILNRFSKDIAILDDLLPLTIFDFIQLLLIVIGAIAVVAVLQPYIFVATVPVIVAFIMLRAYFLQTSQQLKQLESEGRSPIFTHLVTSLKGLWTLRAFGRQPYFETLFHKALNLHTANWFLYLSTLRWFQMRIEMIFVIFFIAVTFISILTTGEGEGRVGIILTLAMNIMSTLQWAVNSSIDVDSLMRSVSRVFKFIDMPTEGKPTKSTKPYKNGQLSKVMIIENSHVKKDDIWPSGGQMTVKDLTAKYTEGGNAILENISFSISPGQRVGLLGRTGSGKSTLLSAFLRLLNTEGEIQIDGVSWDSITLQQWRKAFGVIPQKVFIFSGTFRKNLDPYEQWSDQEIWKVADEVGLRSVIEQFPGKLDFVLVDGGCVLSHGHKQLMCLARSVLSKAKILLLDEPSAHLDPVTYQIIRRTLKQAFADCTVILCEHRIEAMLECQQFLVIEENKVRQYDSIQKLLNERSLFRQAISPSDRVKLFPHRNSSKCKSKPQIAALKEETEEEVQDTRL

| SMILES | Activity |
| --- | --- |
| CCc1ccc(OC(CC)c2ccccc2)c2c(C(=O)O)cc(-c3csc4ccccc34)nc12 (stereo in doubt) [Compound 185, 2-(1-Benzothiophen-3-yl)-8-ethyl-5-[(1S)-1-phenylpropoxy]quinoline-4-carboxylic acid] | ++ (activity>50% of CFTR amplifier+VX-809 (3 uM) with compound at 10 uM and Compound A at 3 uM) |
| Cc1cc(Cl)cc2c(C(=O)O)cc(-c3cc4ccccc4s3)nc12 [Compound 1] | + (activity<50% of an CFTR amplifier (Compound A)+VX-809 (3 uM) with compound at 10 uM and Compound A at 3 uM) |
| Cc1cc(C)c2nc(-c3nc4ccccc4s3)cc(C(=O)O)c2c1 [Compound 2, 2-(1,3-Benzothiazol-2-yl)-6,8-dimethylquinoline-4-carboxylic Acid] | + (activity<50% of an CFTR amplifier (Compound A)+VX-809 (3 uM) with compound at 10 uM and Compound A at 3 uM) |
| Cc1cc(C)c2nc(-c3nc4ccccc4o3)cc(C(=O)O)c2c1 [Compound 3, 2-(1,3-Benzoxazol-2-yl)-6,8-dimethylquinoline-4-carboxylic acid] | + (activity<50% of an CFTR amplifier (Compound A)+VX-809 (3 uM) with compound at 10 uM and Compound A at 3 uM) |
| Cc1cc(C)c2nc(-c3cc4ccccc4s3)nc(C(=O)O)c2c1 [Compound 4, 2-(1-Benzothiophen-2-yl)-6,8-dimethylquinazoline-4-carboxylic Acid] | + (activity<50% of an CFTR amplifier (Compound A)+VX-809 (3 uM) with compound at 10 uM and Compound A at 3 uM) |
| Cc1cc(C)c2nc(-c3c(C)oc4ccccc34)cc(C(=O)O)c2c1 [Compound 5, 6,8-Dimethyl-2-(2-methyl-1-benzofuran-3-yl)quinoline-4-carboxylic acid] | + (activity<50% of an CFTR amplifier (Compound A)+VX-809 (3 uM) with compound at 10 uM and Compound A at 3 uM) |
| Cc1cc(C)c2nc(-c3cc4ccccc4o3)cc(C(=O)O)c2c1 [Compound 6, 2-(1-Benzofuran-2-yl)-6,8-dimethylquinoline-4-carboxylic acid] | + (activity<50% of an CFTR amplifier (Compound A)+VX-809 (3 uM) with compound at 10 uM and Compound A at 3 uM) |
| Cc1cc(C)c2nc(-c3cc4ccccc4o3)c(C)c(C(=O)O)c2c1 [Compound 7, 2-(1-Benzofuran-2-yl)-3,6,8-trimethylquinoline-4-carboxylic acid] | + (activity<50% of an CFTR amplifier (Compound A)+VX-809 (3 uM) with compound at 10 uM and Compound A at 3 uM) |
| Cc1cc(C)c2nc(-c3csc4ccccc34)cc(C(=O)O)c2c1 [Compound 8, 2-(1-Benzothiophen-3-yl)-6,8-dimethylquinoline-4-carboxylic acid] | + (activity<50% of an CFTR amplifier (Compound A)+VX-809 (3 uM) with compound at 10 uM and Compound A at 3 uM) |
| Cc1cc(C)c2nc(-c3oc4ccccc4c3C)cc(C(=O)O)c2c1 [Compound 9, 6,8-dimethyl-2-(3-methyl-1-benzofuran-2-yl)quinoline-4-carboxylic acid] | ++ (activity>50% of CFTR amplifier+VX-809 (3 uM) with compound at 10 uM and Compound A at 3 uM) |
| Cc1ccc(C)c2c(C(=O)O)cc(-c3cc4ccccc4o3)nc12 [Compound 10, 2-(1-Benzofuran-2-yl)-5,8-dimethylquinoline-4-carboxylic acid] | + (activity<50% of an CFTR amplifier (Compound A)+VX-809 (3 uM) with compound at 10 uM and Compound A at 3 uM) |
| COc1cc(C)c2nc(-c3cc4ccccc4o3)cc(C(=O)O)c2c1 [Compound 11, 2-(1-Benzofuran-2-yl)-6-methoxy-8-methylquinoline-4-carboxylic acid] | + (activity<50% of an CFTR amplifier (Compound A)+VX-809 (3 uM) with compound at 10 uM and Compound A at 3 uM) |
| Cc1cc(Cl)cc2cc(C(=O)O)c(-c3cc4ccccc4o3)nc12 [Compound 12, 2-(1-Benzofuran-2-yl)-6-chloro-8-methylquinoline-3-carboxylic Acid] | + (activity<50% of an CFTR amplifier (Compound A)+VX-809 (3 uM) with compound at 10 uM and Compound A at 3 uM) |
| Cc1ccc(C)c2c(C(=O)O)cc(-c3cc4ccccc4s3)nc12 [Compound 13, 2-(1-Benzothiophen-2-yl)-5,8-dimethylquinoline-4-carboxylic acid] | + (activity<50% of an CFTR amplifier (Compound A)+VX-809 (3 uM) with compound at 10 uM and Compound A at 3 uM) |
| COc1ccc(C)c2nc(-c3cc4ccccc4o3)cc(C(=O)O)c12 [Compound 14, 2-(1-Benzofuran-2-yl)-5-methoxy-8-methylquinoline-4-carboxylic acid] | + (activity<50% of an CFTR amplifier (Compound A)+VX-809 (3 uM) with compound at 10 uM and Compound A at 3 uM) |
| Cc1ccc(OCc2ccccc2)c2c(C(=O)O)cc(-c3cc4ccccc4o3)nc12 [Compound 15, 2-(1-Benzofuran-2-yl)-5-(benzyloxy)-8-methylquinoline-4-carboxylic acid] | ++ (activity>50% of CFTR amplifier+VX-809 (3 uM) with compound at 10 uM and Compound A at 3 uM) |
| Cc1cc(Cl)cc2c(C(=O)O)cc(-c3cc4ccccc4o3)nc12 [Compound 16, 2-(1-Benzofuran-2-yl)-6-chloro-8-methylquinoline-4-carboxylic acid] | + (activity<50% of an CFTR amplifier (Compound A)+VX-809 (3 uM) with compound at 10 uM and Compound A at 3 uM) |
| Cc1c(-c2cc(C(=O)O)c3cc(Cl)cc(C)c3n2)oc2ccccc12 [Compound 17, 6-Chloro-8-methyl-2-(3-methylbenzofuran-2-yl)quinoline-4-carboxylic acid] | ++ (activity>50% of CFTR amplifier+VX-809 (3 uM) with compound at 10 uM and Compound A at 3 uM) |
| Cc1cc(C)c2nc(-c3sc4ccccc4c3C)cc(C(=O)O)c2c1 [Compound 18, 6,8-Dimethyl-2-(3-methylbenzo[b]thiophen-2-yl)quinoline-4-carboxylic acid] | + (activity<50% of an CFTR amplifier (Compound A)+VX-809 (3 uM) with compound at 10 uM and Compound A at 3 uM) |
| Cc1c(-c2cc(C(=O)O)c3cc(C(F)(F)F)cc(C)c3n2)oc2ccccc12 [Compound 19, 8-Methyl-2-(3-methyl-1-benzofuran-2-yl)-6-(trifluoromethyl)quinoline-4-carboxylic acid] | ++ (activity>50% of CFTR amplifier+VX-809 (3 uM) with compound at 10 uM and Compound A at 3 uM) |
| Cc1c(-c2cc(C(=O)O)c3cc(F)cc(C)c3n2)oc2ccccc12 [Compound 20, 6-Fluoro-8-methyl-2-(3-methylbenzofuran-2-yl)quinoline-4-carboxylic acid] | ++ (activity>50% of CFTR amplifier+VX-809 (3 uM) with compound at 10 uM and Compound A at 3 uM) |
| Cc1c(-c2cc(C(=O)O)c3cc(Br)cc(C)c3n2)oc2ccccc12 [Compound 21, 6-bromo-8-methyl-2-(3-methyl-1-benzofuran-2-yl)quinoline-4-carboxylic acid] | ++ (activity>50% of CFTR amplifier+VX-809 (3 uM) with compound at 10 uM and Compound A at 3 uM) |
| Cc1c(-c2cc(C(=O)O)c3cc(C#N)cc(C)c3n2)oc2ccccc12 [Compound 22, 6-Cyano-8-methyl-2-(3-methyl-1-benzofuran-2-yl)quinoline-4-carboxylic Acid] | + (activity<50% of an CFTR amplifier (Compound A)+VX-809 (3 uM) with compound at 10 uM and Compound A at 3 uM) |
| COc1cc(C)c2nc(-c3oc4ccccc4c3C)cc(C(=O)O)c2c1 [Compound 23, 6-Methoxy-8-methyl-2-(3-methyl-1-benzofuran-2-yl)quinoline-4-carboxylic acid] | ++ (activity>50% of CFTR amplifier+VX-809 (3 uM) with compound at 10 uM and Compound A at 3 uM) |
| Cc1c(-c2cc(C(=O)O)c3cc(OCc4ccccc4)cc(C)c3n2)oc2ccccc12 [Compound 24, 6-(Benzyloxy)-8-methyl-2-(3-methyl-1-benzofuran-2-yl)quinoline-4-carboxylic acid] | ++ (activity>50% of CFTR amplifier+VX-809 (3 uM) with compound at 10 uM and Compound A at 3 uM) |
| Cc1c(-c2cc(C(=O)O)c3cc(OCCO)cc(C)c3n2)oc2ccccc12 [Compound 25, 6-(2-Hydroxyethoxy)-8-methyl-2-(3-methyl-1-benzofuran-2-yl)quinoline-4-carboxylic Acid] | + (activity<50% of an CFTR amplifier (Compound A)+VX-809 (3 uM) with compound at 10 uM and Compound A at 3 uM) |
| CCc1cc(C)c2nc(-c3oc4ccccc4c3C)cc(C(=O)O)c2c1 [Compound 26, 6-Ethyl-8-methyl-2-(3-methyl-1-benzofuran-2-yl)quinoline-4-carboxylic Acid] | ++ (activity>50% of CFTR amplifier+VX-809 (3 uM) with compound at 10 uM and Compound A at 3 uM) |
| Cc1c(-c2cc(C(=O)O)c3cc(C(C)(C)C)cc(C)c3n2)oc2ccccc12 [Compound 27, 6-tert-Butyl-8-methyl-2-(3-methyl-1-benzofuran-2-yl)quinoline-4-carboxylic acid] | ++ (activity>50% of CFTR amplifier+VX-809 (3 uM) with compound at 10 uM and Compound A at 3 uM) |
